In patent US20120270770A1, “Anti-angiogenic peptides and their uses” (priority 2010, published 2012):

Key:
[1] = system: angiogenesis in Matrigel deposits imbibed with fibroblast growth factor 1 (FGF1); assay: Matrigel deposit angiogenesis assay (FGF1-loaded Matrigel implanted in mice, histology score); format: in vivo
Description: Matrigel deposits were surgically implanted on both sides of 4 mice per treatment yielding a possible 8 samples per treatment. Matrigel is a polymeric substance that appears to be relatively inert in animals and it can serve as a matrix that allows experimentation in vivo on many different difficult-to-study-processes. Prior to implantation, the Matrigel was allowed to imbibe fibroblast growth factor 1 (FGF1). This protein is a powerful inducer of angiogenesis and its presence guarantees that sufficient activity will be observed within the allotted time period of the experiment. Therefore, any inhibition of angiogenesis is likely to be a real phenomenon as the experiment has been set to heavily favor the angiogenic process. Angiogenesis occurs by day 14 and beginning Day 1 (Day 0=day of implantation), mice were injected IP daily with 20 μg of peptide in 100 μl of normal saline. The animals were sacrificed on Day 14, and each Matrigel deposit divided longitudinally and fixed in 10% buffered formalin. One of the halves of each Matrigel deposit was then sectioned. Read-out for this experiment was via histology, with semi-quantitative/qualitative counting of migration of cells and their subsequent assembly of lumenal structures within the Matrigel. This method allows us to observe the full physiologic spectrum of effects, and was useful in delineating trends. […] In FIG. 13, A represents what a section of a Matrigel gel deposit looks like under the microscope soon after surgical implantation. The sample in B is derived from the control at the conclusion of the experiment. Intense activity is present with numerous cells attaching to the surface of the Matrigel. Cells begin to penetrate the deposit and organize into discrete structures that coalesce to form the beginning of tubes twisting and branching in many directions. These venules eventually connect with the system carrying blood and it is possible to see red cells and lymphocytes within them. This process is called “arborization”, derived from the fact that the angiogenic process most closely resembles the growth of roots and branches of trees. All but two of the peptide treatments looked, more or less, like B (all the peptides of Table 1 were tested). In C, a typical sample from the peptide C-1 treatment is shown. […] Consequently, there were far fewer cells and cellular structures inside of the Matrigel. […] There were large regions of Matrigel that had no visibly associated structures and few single cells, including on the periphery, while other regions had some limited activity.
This system ranks each sample using a 0 to 4 plus (+) scale. Thus, B in FIG. 13 would yield a score of +++ while no + sign would yield a value of 0, as in A in FIG. 13. In Table 3 the data is modified to a numerical form and plotted averages are shown.

HMEC-1 monolayer = assay: Endothelial cell migration assay (scraped HMEC-1 monolayer); format: cell-based; settings: for Endothelial Cell Migration: NT = 1.00
Description: The results in Table 6 are gathered from an in vitro experiment and show the ability of JC 15 10N to inhibit the migration of endothelial cells (the “minus” values). This migration is a requisite step in the formation of new blood vessels. […] The shading indicates the presence of VEGF ([…] endothelial growth factor). This growth factor causes endothelial cell migration and consequent assembly of blood vessels.
Cell migration was performed as previously described. In brief, a HMEC-1 monolayer was scraped making a 1-mm wide denuded area then stimulated with VEGF and 10N and the area unoccupied by the migrating cells was determined using MetaMorph and expressed as a percentage of control.

[2] = system: Feline Immunodeficiency virus FIV; assay: Treatment of a lion infected with FIV; format: in vivo; settings: weekly 70 mg I.M injections
Description: Nasty is a male lion in North Carolina Zoological Park. He was diagnosed to suffer Feline Immunodeficiency virus FIV. FIV attacks the immune system of cats, much like the human immunodeficiency virus (HIV) attacks the immune system of human beings. FIV infects many cell types in its host, including CD4+ and CD8+ T lymphocytes, B lymphocytes, and macrophages. FIV eventually leads to debilitation of the immune system in its feline hosts by the infection and exhaustion of T-helper (CD4+) cells.
Nasty was treated weekly with 70 mg I.M injections of JC15-10N. […] It can be seen that starting of peptide treatment stabilized the CD4+ cell counts.

[3] = system: Stage IV pancreatic cancer; assay: Treatment of a patient with Stage IV pancreatic cancer; format: in vivo, human; settings: one patient
Description: A diabetic since 12/01 was diagnosed with Stage IV pancreatic cancer in May 2002 with metastatic diseases in their liver. Median survival time of patients with Stage IV pancreatic cancer is 4.5 months. Median survival time of patients with Stage IV pancreatic cancer when treated with gemcitabine is 4.8 months. The longest anyone lived on gemcitabine treatment has been 19 months.
The patient of this case started JC15-10N peptide treatment on August 2002. The patient was given 0.5 mg/kg peptide sub-cutaneously. The patient weighted 128 lbs. and therefore they received 29 mg/injection per week. […] After receiving the peptide for more than 19 months, the patient was doing fine. The patient passed away from unrelated causes on July 2004.

[4] = system: arthritis (calcification of joints); assay: Treatment of a patient with arthritis; format: in vivo, human; settings: one patient, subcutaneous 10 mg once a week for one month, then once a month
Description: A patient with arthritis was treated by subcutaneous injection of 10 mg once a week for one month and then once a month for maintenance doses. A visible indication of arthritis is calcification of joints.

[5] = 0 to 4 plus scale, 20 μg peptide IP daily, Day 14 histology

## FAKKFAKKFK [JC15-10N]
[1]; [5]
  angiogenic activity score, Sample 1: 1
  angiogenic activity score, Sample 2: 2
  angiogenic activity score, Sample 3: 2
  angiogenic activity score, Sample 4: 3
  angiogenic activity score, Sample 5: 1
  angiogenic activity score, Sample 6: 2
  angiogenic activity score, Sample 7: 2
[1]; difference of mean score from control (2.50)
  % Diff.: −25.71%
[1]; histology, 20 μg peptide IP daily, Day 14
  angiogenic / anti-angiogenic activity in Matrigel deposit (in words): possesses anti-angiogenic activity
[1]; mean of samples, control mean 2.50
  angiogenic activity score, Mean: 1.86
HMEC-1 monolayer; 10N 100 nM, first series (VEGF 150 ng/ml), VEGF presence marked by shading, not reproduced
  Endothelial Cell Migration: 0.42
HMEC-1 monolayer; 10N 100 nM, second series (VEGF 75 ng/ml)
  Endothelial Cell Migration: −1.18
HMEC-1 monolayer; 10N 100 nM, third series (VEGF 150 ng/ml)
  Endothelial Cell Migration: 0.55
HMEC-1 monolayer; 10N 1 μM, first series (VEGF 150 ng/ml)
  Endothelial Cell Migration: −1.57
HMEC-1 monolayer; 10N 1 μM, second series (VEGF 75 ng/ml)
  Endothelial Cell Migration: 0.57
HMEC-1 monolayer; 10N 1 μM, third series (VEGF 150 ng/ml)
  Endothelial Cell Migration: −1.35
HMEC-1 monolayer; 10N 10 μM, first series (VEGF 150 ng/ml)
  Endothelial Cell Migration: 0.90
HMEC-1 monolayer; 10N 10 μM, second series (VEGF 75 ng/ml)
  Endothelial Cell Migration: −1.02
HMEC-1 monolayer; 10N 10 μM, third series (VEGF 150 ng/ml)
  Endothelial Cell Migration: −1.02
HMEC-1 monolayer; 10N 100 μM, first series (VEGF 150 ng/ml)
  Endothelial Cell Migration: 0.80
HMEC-1 monolayer; 10N 100 μM, second series (VEGF 75 ng/ml)
  Endothelial Cell Migration: −1.01
HMEC-1 monolayer; 10N 100 μM, third series (VEGF 150 ng/ml)
  Endothelial Cell Migration: −1.06
HMEC-1 monolayer; 10N 1 mM, first series (VEGF 150 ng/ml)
  Endothelial Cell Migration: −1.01
HMEC-1 monolayer; 10N 1 mM, second series (VEGF 75 ng/ml)
  Endothelial Cell Migration: 0.55
HMEC-1 monolayer; 10N 1 mM, third series (VEGF 150 ng/ml)
  Endothelial Cell Migration: 0.92
HMEC-1 monolayer; in vitro, with VEGF
  effect on migration of endothelial cells (in words): inhibits this migration even in the presence of VEGF
[2]
  absolute CD4+ cell counts: stabilized
  absolute CD8+ cell counts: prevented the decrease
  weight of the lion: began to rise immediately
[3]; 0.5 mg/kg sub-cutaneously per week
  need for diabetic medication (indicating primary tumor regressing): required no more diabetic medication
[3]; 0.5 mg/kg sub-cutaneously, 29 mg/injection per week
  metastatic disease in the liver: diminished significantly
[3]; Stage IV pancreatic cancer, 0.5 mg/kg sub-cutaneously per week
  time on peptide with the patient doing fine: more than 19 months
[4]
  calcification of the ankle joints (x-ray): disappeared
